This note sets out measurements from patent US20230241245A1, “Therapeutic Carbon Nanomaterial H2S Oxidants for Biological Polysulfide Synthesis” (The Texas A&M University System, priority 2020, published 2023).

Molecules are shown by their SMILES.

This assay relates to bEnd.3 cells. Nature of the assay: SSP4 fluorescence photomicrographs of bEnd.3 cells with or without AP39 and PEG-OAC. The assay is classed as cell-based. As to conditions: PEG-OACs 4 mg/L.

Regarding `O=C(CCCCCCCCC[P+](c1ccccc1)(c1ccccc1)c1ccccc1)Oc1ccc(-c2cc(=S)ss2)cc1.[Br-]` [AP39], the “SSP4 fluorescence, agent alone relative to control” value was “increases the fluorescence signal”.
